Results reported in US10730826B2, “Ketone inhibitors of lysine gingipain” (CORTEXYME, INC., priority 2016, dated 2020).

Legend:
Cathepsin K = Cathepsin K (Homo sapiens (Human), UniProt P43235); assay: Cathepsin K inhibition assay; type: biochemical; details: Table 4; read-out: IC50 (nM) CatK
Description: The capacities of compounds of the present invention to inhibit the activity of cathepsins B, H, K, L, and S were measured in similar assays. Boc-Leu-Arg-Arg-AMC (20 μM) in sodium acetate buffer (50 mM, pH 5.5) containing DTT (1 mM) and EDTA (2 mM) was used for the Cathepsin B assay. L-Arg-AMC (20 μM) in sodium acetate buffer (50 mM, pH 5.5) containing DTT (1 mM) and EDTA (2 mM) was used for the Cathepsin H assay. Z-Phe-Arg-AMC (10 μM) in HEPES buffer (50 mM, pH 7.4) containing DTT (2.5 mM) and EDTA (1 mM) was used for the Cathepsin K assay. Z-Phe-Arg-AMC (20 μM) in sodium acetate buffer (50 mM, pH 5.5) containing DTT (1 mM) and EDTA (2 mM) was used for the Cathepsin L assay. Z-Leu-Arg-AMC (10 μM) in sodium acetate buffer (25 mM, pH 4.5) containing DTT (2.5 mM) and NaCl (50 mM) was used for the Cathepsin S assay. The capacities of the compounds to inhibit the activity of cathepsins F, V, and Z were also measured.
Further assays to measure the inhibitory activity of compounds of the present invention against Kgp and cathepsins B, H, K, L, and S were conducted as described in Example 66. The capacities of the compounds to inhibit the activity of cathepsins F, V, and Z were also measured.

[1] = Pharmacokinetics in male CD-1 mice dosed p.o.; type: in vivo; details: p.o. 10 mg/kg, compared to reference compound 73
Kgp = Kgp (Porphyromonas gingivalis (Bacteroides gingivalis), UniProt Q51817); assay: Cy5 activity-based probe detection of Kgp in P. gingivalis lysate; type: binding; details: 100 nM, FIG. 9C
Description: It has a warhead that binds to the Kgp active site, a peptide-based core, and a Cy5 fluorophore for detection. Labeled target proteins can be visualized by biochemical separation of a sample with fractionation by 2-D gel electrophoresis and detection of fluorescent signals from Cy5 at the appropriate excitation and emission wavelength. Incubation of a fixed concentration of the probe following binding of Kgp to a test compound (e.g., a candidate Kgp inhibitor) results in binding of the activity probe to Kgp active sites not already bound by the test compound.
10^8 bacteria were collected and centrifuged at 5000 g for 10 min at 4° C., and the supernatant was discarded. The bacterial cell pellet was lysed with 1 mL of B-Per lysis buffer (Thermo Fischer) on ice for 10 min, then centrifuged for 10 min at 14000 g, 4° C. Supernatant-containing protein lysate was collected. Biological samples were lysed with B-Per lysis buffer for 10 min at 4° C.
Biological samples, P. gingivalis lysate or purified Kgp were incubated with quenchable Cy5 probe compound 71 (1 μM) for 1 h at 37° C. with shaking. Then, samples were denatured with NUPAGE LDS sample buffer (Thermo Fisher) containing 50 mM DTT at 95° C. for 10 min and subjected to SDS-PAGE electrophoresis using a Criterion 4-15% precast gel (Bio-Rad) and Tris/Glycine/SDS running buffer (Bio-Rad). The gel was run at 75V for 10 min and then 125V for 1.5 h. The gel was then removed from the plastic cassette and subjected to Cy5 visualization with a ChemiDoc imaging system (Bio-Rad).
Samples were labeled with quenchable Cy5 probe compound 71 (1 μM) for 1 h at 37° C. with shaking. For immunoprecipitation of Cy5 labeled Kgp, the samples were then incubated with 10 μg of rabbit polyclonal CAB102 antibody with rotation overnight at 4° C. Then, samples were incubated with prewashed Dynabead Protein G beads with rotation for 20 min at room temperature. The samples were washed 4 times with 200 μL of washing buffer, using a magnetic rack. […]

P. gingivalis W83 = assay: Mouse periodontitis model, GAD67 positive interneurons in the dentate gyrus; type: in vivo, BALB/C mice; details: 10 weeks, infected treated mice vs mock-infected
Description: At the beginning of the study, eight week old BALB/C female mice received antibiotic in drinking water (sulfamethoxazolum 0.87 mg/mL, trimethoprimum 0.17 mg/mL) for 10 days to reduce microbiome protection from experiment infection. Experimental periodontitis was induced by ligature placement followed by multiple exposures to P. gingivalis. During the ligature procedure mice were anesthetized with an intraperitoneal injection of ketamine (200 mg/kg) and xylazine (10 mg/kg), and eyes were lubricated with ointment (Puralube Vet; Pharmaderm, Melville, N.Y.). Next, a 5-0 silk ligature (Roboz Surgical Instrument Co.) was tied around the upper maxillary left and right second molar. Sutures were applied and tied gently to prevent damage to the periodontal tissue.
Mice (n=8-10/arm) were infected for 6 weeks every other day. For infection, […]. of bacteria solution were applied topically to the buccal surface of the maxillae. For preparation of the bacteria, P. gingivalis W83 (ATCC, Rockville, Md.) was streaked on Tryptic Soy Broth (TSB) agar plates (5% sheep blood, supplemented with 0.5 mg/mL L-cysteine, 5 μg/mL hemin, and 0.5 μg/mL vitamin K) and grown under anaerobic conditions at 37° C. for 5-7 days. […]
Quantification of GAD67 positive interneurons was performed with CellSens 1.5. […] The number of cells on every 40th section through the hippocampus was counted. […]

Sequence of Kgp (Q51817 229-737 limits assumed): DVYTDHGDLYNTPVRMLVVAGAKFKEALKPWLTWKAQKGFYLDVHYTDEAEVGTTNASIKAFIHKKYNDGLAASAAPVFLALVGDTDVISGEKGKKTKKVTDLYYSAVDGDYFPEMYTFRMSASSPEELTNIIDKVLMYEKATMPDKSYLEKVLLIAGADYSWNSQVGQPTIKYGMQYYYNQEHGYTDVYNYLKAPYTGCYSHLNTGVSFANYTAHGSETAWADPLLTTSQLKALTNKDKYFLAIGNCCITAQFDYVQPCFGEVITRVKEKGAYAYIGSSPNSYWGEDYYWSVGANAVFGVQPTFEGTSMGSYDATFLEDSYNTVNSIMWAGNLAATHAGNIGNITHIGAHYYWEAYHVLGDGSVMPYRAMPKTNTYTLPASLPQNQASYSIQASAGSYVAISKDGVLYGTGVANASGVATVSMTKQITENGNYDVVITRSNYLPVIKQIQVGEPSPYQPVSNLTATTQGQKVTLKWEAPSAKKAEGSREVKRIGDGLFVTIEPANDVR
Sequence of Cathepsin K (P43235 115-329, species assumed): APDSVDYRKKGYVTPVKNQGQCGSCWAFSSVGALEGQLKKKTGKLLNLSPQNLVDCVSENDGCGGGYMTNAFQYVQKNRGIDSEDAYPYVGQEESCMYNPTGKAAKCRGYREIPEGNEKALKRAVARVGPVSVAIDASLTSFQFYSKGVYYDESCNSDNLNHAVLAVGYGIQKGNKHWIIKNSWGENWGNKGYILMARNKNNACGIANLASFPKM

Q: What does the source list for `NCCCC[C@H](NC(=O)C1CCCC1)C(=O)COc1c(F)ccc(F)c1F` [Compound 1, (S)—N-(7-amino-2-oxo-1-(2,3,6-trifluorophenoxy)heptan-3-yl)cyclopentanecarboxamide]?
A: IC50 (Cathepsin K): 117 nM; oral availability [1]: improved oral availability; plasma concentrations [1]: increased plasma concentrations; competition with probe compound 71 for Kgp active site (Kgp): competes for active site binding; GAD67 positive interneurons in the dentate gyrus (P. gingivalis W83): at the same level as the GAD67^+ cells in the mock-infected mice
